{"source": "paper PMC3130732", "about": "“E. coli Histidine Triad Nucleotide Binding Protein 1 (ecHinT) Is a Catalytic Regulator of D-Alanine Dehydrogenase (DadA) Activity In Vivo” (PLoS ONE, 2011)", "target": "T1, E. coli Histidine Triad Nucleotide Binding Protein 1 (ecHinT) (Escherichia coli, UniProt P0ACE7)", "T1 construct": "gene hinT", "T1 sequence (P0ACE7 whole entry)": "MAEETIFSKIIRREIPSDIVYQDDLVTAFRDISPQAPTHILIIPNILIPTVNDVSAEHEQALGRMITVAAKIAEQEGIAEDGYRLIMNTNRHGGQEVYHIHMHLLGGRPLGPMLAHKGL", "assay": "spectrophotometric phosphoramidase assay", "assay_type": "biochemical"}
{"smiles": "Nc1nc2c(ncn2[C@@H]2O[C@H](COC(=O)NCCc3c[nH]c4ccccc34)[C@@H](O)[C@H]2O)c(=O)[nH]1", "note": "[TpGc, 5′-O-[(3-indolyl)-1-ethyl]carbamoyl guanosine]", "values": [{"measurement": "Ki", "result": 42, "unit": "µM"}]}
